According to patent EP4800015A1, “AZABICYCLO DERIVATIVE AND PREPARATION METHOD THEREFOR, AND USE” (Zhejiang Hisun Pharmaceutical Co., Ltd., priority 2023, dated 2025):

target: T1, recombinant human WRN (Homo sapiens, UniProt Q14191); assay: Inhibition of WRN enzyme activity (ATPase), ADP-Glo Kinase Assay; type: biochemical; conditions: WRN protein 5 nM, Flap 0.1 nM, ATP 30 µM
T1 construct: purchased BPS 101264
Source text: The following method was used to determine the degree of inhibition of recombinant human WRN ATPase activity by the compounds of the present disclosure in vitro. In this method, ADP-Glo™ Kinase Assay kit (catalog No. V9102) from Promega was used. Detailed experimental procedures can be found in the kit manual.
The experimental procedure was briefly described as follows: test compounds were first dissolved in DMSO to prepare stock solutions, followed by serial dilution using reaction buffer (30 mM Tris, pH 7.5, 2 mM MgCl2, 50 mM NaCl, 0.02% BSA, 0.1% Pluronic F127), with final concentrations of test compounds in the reaction system ranging from 1000 nM to 0.004 nM; WRN protein (purchased from BPS, catalog No. 101264), substrate 5-flap oligonucleotide (Flap26) (synthesized by Shanghai Generay Biotech Co., Ltd., sequence 5'-[…]-3'), and ATP working solution (from ADP-Glo™ Kinase Assay kit component V915A) were prepared using reaction buffer. Reactions were performed in 384-well microplates. At first the compounds and recombinant human WRN protein (final concentration 5 nM) were added to the wells and the plate was incubated at room temperature for 15 minutes, then Flap solution (final concentration 0.1 nM) and ATP solution (final concentration 30 µM) were added to the reaction solution and the plate was incubated at room temperature for 10 minutes. Subsequently, 5 µL of ADP-Glo Reagent was added to the reaction system and incubated at room temperature for 40 minutes. Then 10 µL of Kinase Detection Reagent was added to the reaction system and incubated at room temperature for 30 minutes. After the incubation was completed, chemiluminescence intensity values of each well were measured using a microplate reader in luminescence mode. The percentage inhibition of the compounds at each concentration was calculated by comparison with the luminescence intensity values of the control group (0.1% DMSO), and IC50 values of compounds were obtained by nonlinear regression analysis of compound concentration logarithm-inhibition rate using GraphPad Prism 9 software, as shown in Table 1.
The IC50 value results of the compounds of the present disclosure are expressed as AA and A, respectively as follows: "AA" indicates IC50 ≤ 1 nM; "A" indicates 1 nM < IC50 ≤ 100 nM. Table 1 IC50 of the compounds of the present disclosure for inhibiting WRN enzyme activity (ATPase)

T1 sequence (Q14191 whole entry): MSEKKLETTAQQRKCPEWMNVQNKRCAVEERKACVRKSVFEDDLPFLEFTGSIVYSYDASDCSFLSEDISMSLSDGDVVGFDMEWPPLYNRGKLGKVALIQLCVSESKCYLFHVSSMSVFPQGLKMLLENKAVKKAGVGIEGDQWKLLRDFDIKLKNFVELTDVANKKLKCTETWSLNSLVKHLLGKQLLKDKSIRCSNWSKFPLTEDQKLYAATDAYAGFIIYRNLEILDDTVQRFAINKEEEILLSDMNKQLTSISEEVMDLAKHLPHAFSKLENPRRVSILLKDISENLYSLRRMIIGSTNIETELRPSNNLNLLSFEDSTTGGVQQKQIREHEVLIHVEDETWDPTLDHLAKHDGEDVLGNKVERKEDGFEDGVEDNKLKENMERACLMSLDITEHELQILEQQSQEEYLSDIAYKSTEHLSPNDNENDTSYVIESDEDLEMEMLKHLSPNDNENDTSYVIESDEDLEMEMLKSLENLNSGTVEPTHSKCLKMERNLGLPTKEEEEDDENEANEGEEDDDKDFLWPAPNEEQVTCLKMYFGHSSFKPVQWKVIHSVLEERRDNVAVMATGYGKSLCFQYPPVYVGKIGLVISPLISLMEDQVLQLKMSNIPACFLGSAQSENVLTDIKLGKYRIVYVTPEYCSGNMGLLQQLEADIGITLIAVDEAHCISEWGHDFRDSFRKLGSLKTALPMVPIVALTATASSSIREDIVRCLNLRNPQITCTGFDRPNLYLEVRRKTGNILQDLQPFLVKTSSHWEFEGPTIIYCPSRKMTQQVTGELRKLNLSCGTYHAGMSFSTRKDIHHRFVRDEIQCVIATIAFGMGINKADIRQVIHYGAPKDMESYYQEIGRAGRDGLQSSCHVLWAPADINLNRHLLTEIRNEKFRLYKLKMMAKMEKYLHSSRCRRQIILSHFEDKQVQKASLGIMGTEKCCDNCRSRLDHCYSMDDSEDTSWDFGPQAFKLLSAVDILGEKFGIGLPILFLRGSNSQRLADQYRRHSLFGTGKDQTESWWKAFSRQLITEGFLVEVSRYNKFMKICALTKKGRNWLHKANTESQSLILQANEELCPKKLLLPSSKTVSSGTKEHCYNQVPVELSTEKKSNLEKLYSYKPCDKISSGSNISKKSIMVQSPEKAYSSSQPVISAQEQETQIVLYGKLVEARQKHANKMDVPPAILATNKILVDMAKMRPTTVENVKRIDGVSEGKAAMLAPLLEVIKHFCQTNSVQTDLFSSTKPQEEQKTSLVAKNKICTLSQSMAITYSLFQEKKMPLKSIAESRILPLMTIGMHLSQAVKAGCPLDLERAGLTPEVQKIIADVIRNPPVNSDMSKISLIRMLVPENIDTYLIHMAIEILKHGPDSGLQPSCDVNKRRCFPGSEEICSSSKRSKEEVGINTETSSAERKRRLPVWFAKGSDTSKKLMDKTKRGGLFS

SMILES	IC50 [nM]
CCc1c(N2CCN(C(=O)c3ncnc(C)c3O)CC2)c(=O)n2nc(-c3coc4ccccc34)nc2n1CC(=O)Nc1ccc(C(F)(F)F)cc1Cl [Example 35, 2-(2-(benzofuran-3-yl)-5-ethyl-6-(4-(5-hydroxy-6-methylpyrimidine-4-carbonyl)piperazin-1-yl)-7-oxo-[1,2,4]triazolo[1,5-a]pyrimidin-4(7H)-yl)-N-(2-chloro-4-(trifluoromethyl)phenyl) acetamide]	1 to 100

same assay, conditions: WRN protein 5 nM, Flap 0.1 nM, ATP 30 µM; read-out: IC50

IC50 [nM]	SMILES
1 to 100	CCc1c(N2CCN(C(=O)c3ncccc3O)CC2)c(=O)n2nc(C3=CC4(CCC4)C3)nc2n1CC(=O)Nc1ccc(C(F)(F)F)cc1Cl [Example 51, N-(2-chloro-4-(trifluoromethyl)phenyl)-2-(5-ethyl-6-(4-(3-hydroxypicolinoyl)piperazin-1-yl)-7-oxo-2-(spiro[3.3]hept-1-en-2-yl)-[1,2,4]triazolo[1,5-a]pyrimidin-4(7H)-yl)acetamide]
1 to 100	CCc1c(N2CCN(C(=O)c3ncnc(C)c3O)CC2)c(=O)n2nc(C3CCCCCC3)nc2n1CC(=O)Nc1ccc(C(F)(F)F)cc1Cl [Example 4, N-(2-chloro-4-(trifluoromethyl)phenyl)-2-(2-cycloheptyl-5-ethyl-6-(4-(5-hydroxy-6-methylpyrimidine-4-carbonyl)piperazin-1-yl)-7-oxo-[1,2,4]triazolo[1,5-a]pyrimidin-4(7H)-yl)acetamide]
< 1	CCc1c(N2CCN(C(=O)c3ccncc3O)CC2)c(=O)n2nc(C3=CCCCCC3)nc2n1CC(=O)Nc1ccc(C(F)(F)F)cc1Cl [Example 9, N-(2-chloro-4-(trifluoromethyl)phenyl)-2-(2-(cyclohept-1-en-1-yl)-5-ethyl-6-(4-(3-hydroxyisonic otinoyl)piperazin-1-yl)-7-oxo-[1,2,4]triazolo[1,5-a]pyrimidin-4(7H)-yl)acetamide]
1 to 100	CCc1c(N2CCN(C(=O)c3ncnc(C)c3O)CC2)c(=O)n2nc(C3=CCCCOC3)nc2n1CC(=O)Nc1ccc(SC(F)(F)F)cc1Cl [Example 165, N-(2-chloro-4-((trifluoromethyl)thio)phenyl)-2-(5-ethyl-6-(4-(5-hydroxy-6-methylpyrimidine-4-carbonyl)piperazin-1-yl)-7-oxo-2-(2,5,6,7-tetrahydrooxepin-3-yl)-[1,2,4]triazolo[1,5-a]pyrimidin-4(7H)-yl)acetamide]
1 to 100	CCc1c(N2CCN(C(=O)c3ncccc3O)CC2)c(=O)n2nc(C3=CC4CCC3C4)nc2n1CC(=O)Nc1ccc(C(F)(F)F)cc1Cl (stereo not drawn) [Example 41, 2-(2-(bicyclo[2.2.1]hept-2-en-2-yl)-5-ethyl-6-(4-(3-hydroxypicolinoyl)piperazin-1-yl)-7-oxo-[1,2,4]triazolo[1,5-a]pyrimidin-4(7H)-yl)-N-(2-chloro-4-(trifluoromethyl)phenyl)acetamide]
1 to 100	CCc1c(N2CCN(C(=O)c3ncccc3O)CC2)c(=O)n2nc(C3=CC4CC(=O)CC4C3)cc2n1CC(=O)Nc1ccc(C(F)(F)F)cc1Cl (stereo not drawn) [Example 56, N-(2-chloro-4-(trifluoromethyl)phenyl)-2-(5-ethyl-6-(4-(3-hydroxypicolinoyl)piperazin-1-yl)-7-oxo-2-(5-oxo-1,3a,4,5,6,6a-hexahydropentalen-2-yl)pyrazolo[1,5-a]pyrimidin-4(7H)-yl)acetamide]
1 to 100	CCc1c(N2CCN(C(=O)c3ncnc(C)c3O)CC2)c(=O)n2nc(N3CCCCCC3)nc2n1CC(=O)Nc1ccc(C(F)(F)F)cc1Cl [Example 3, 2-(2-(Azepan-1-yl)-5-ethyl-6-(4-(5-hydroxy-6-methylpyrimidine-4-carbonyl)piperazin-1-yl)-7-oxo-[1,2,4]triazolo[1,5-a]pyrimidin-4(7H)-yl)-N-(2-chloro-4-(trifluoromethyl)phenyl)acetamide]
1 to 100	CCc1c(N2CCN(C(=O)c3ncccc3O)CC2)c(=O)n2nc(C3=Cc4ccccc4C3)nc2n1CC(=O)Nc1ccc(C(F)(F)F)cc1Cl [Example 72, N-(2-chloro-4-(trifluoromethyl)phenyl)-2-(5-ethyl-6-(4-(3-hydroxypicolinoyl)piperazin-1-yl)-2-(1H-inden-2-yl)-7-oxo-[1,2,4]triazolo[1,5-a]pyrimidin-4(7H)-yl)acetamide]
1 to 100	CCc1c(N2CCN(C(=O)c3ncnc(C)c3O)CC2)c(=O)n2nc(C3CCCCC3)nc2n1CC(=O)Nc1ccc(C(F)(F)F)cc1Cl [Example 12, N-(2-Chloro-4-(trifluoromethyl)phenyl)-2-(2-cyclohexyl-5-ethyl-6-(4-(5-hydroxy-6-methylpyrimidine-4-carbonyl)piperazin-1-yl)-7-oxo-[1,2,4]triazolo[1,5-a]pyrimidin-4(7H)-yl)acetamide]
1 to 100	CCc1c(N2CCN(C(=O)c3ccncc3O)CC2)c(=O)n2nc(C3=CCCCCC3)nc2n1CC(=O)Nc1ccc(C(F)(F)F)cc1F [Example 44, 2-(2-(cyclohept-1-en-1-yl)-5-ethyl-6-(4-(3-hydroxyisonicotinoyl)piperazin-1-yl)-7-oxo-[1,2,4]triazolo[1,5-a]pyrimidin-4(7H)-yl)-N-(2-fluoro-4-(trifluoromethyl)phenyl)acetamide]
1 to 100	CCc1c(N2CCN(C(=O)c3ncnc(C)c3O)CC2)c(=O)n2nc(C3=CC4CNCC4C3)nc2n1CC(=O)Nc1ccc(S(F)(F)(F)(F)F)cc1 (stereo not drawn) [Example 146, 2-(5-Ethyl-2-(1,2,3,3a,4,6a-hexahydrocyclopenta[c]pyrrol-5-yl)-6-(4-(5-hydroxy-6-methylpyrimidine-4-carbonyl)piperazin-1-yl)-7-oxo-[1,2,4]triazolo[1,5-a]pyrimidin-4(7H)-yl)-N-(4-(pentafluoro-λ^6-sulfaneyl)phenyl)acetamide]
1 to 100	[2H]C([2H])([2H])Sc1ccc(NC(=O)Cn2c(CC)c(N3CCN(C(=O)c4ncnc(C)c4O)CC3)c(=O)n3nc(C4=CCCCOC4)nc23)c(Cl)c1 [Example 166, N-(2-chloro-4-((methyl-d3)thio)phenyl)-2-(5-ethyl-6-(4-(5-hydroxy-6-methylpyrimidine-4-carbonyl)piperazin-1-yl)-7-oxo-2-(2,5,6,7-tetrahydrooxepin-3-yl)-[1,2,4]triazolo[1,5-a]pyrimidin-4(7H )-yl)acetamide]
1 to 100	CCc1c(N2CCN(C(=O)c3ncnc(C)c3O)CC2)c(=O)n2nc(C3=CCCCCC3)nc2n1CC(=O)Nc1ccc(C(F)(F)F)cc1OC [Example 48, 2-(2-(cyclohept-1-en-1-yl)-5-ethyl-6-(4-(5-hydroxy-6-methylpyrimidine-4-carbonyl)piperazin-1-yl)-7-oxo-[1,2,4]triazolo[1,5-a]pyrimidin-4(7H)-yl)-N-(2-methoxy-4-(trifluoromethyl)phenyl)ace tamide]
1 to 100	CCc1c(N2CCN(C(=O)c3ncnc(C)c3O)CC2)c(=O)n2nc(C=C3CCCCC3)nc2n1CC(=O)Nc1ccc(C(F)(F)F)cc1Cl [Example 20, N-(2-chloro-4-(trifluoromethyl)phenyl)-2-(2-(cyclohexylidenemethyl)-5-ethyl-6-(4-(5-hydroxy-6-methylpyrimidine-4-carbonyl)piperazin-1-yl)-7-oxo-[1,2,4]triazolo[1,5-a]pyrimidin-4(7H)-yl)ac etamide]
1 to 100	CCc1c(N2CCN(C(=O)c3ncnc(C)c3O)CC2)c(=O)n2nc(-c3ccc4scnc4c3)nc2n1CC(=O)Nc1ccc(C(F)(F)F)cc1Cl [Example 100, 2-(2-(benzo[d]thiazol-5-yl)-5-ethyl-6-(4-(5-hydroxy-6-methylpyrimidine-4-carbonyl)piperazin-1-yl)-7-oxo-[1,2,4]triazolo[1,5-a]pyrimidin-4(7H)-yl)-N-(2-chloro-4-(trifluoromethyl)phenyl)acetamide]
1 to 100	CCc1c(N2CCN(C(=O)c3ncnc(C)c3O)CC2)c(=O)n2nc(-c3ccc4nc(N5CCOCC5)sc4c3)nc2n1CC(=O)Nc1ccc(C(F)(F)F)cc1Cl [Example 171, N-(2-chloro-4-(trifluoromethyl)phenyl)-2-(5-ethyl-6-(4-(5-hydroxy-6-methylpyrimidine-4-carbonyl)piperazin-1-yl)-2-(2-morpholinobenzo[d]thiazol-6-yl)-7-oxo-[1,2,4]triazolo[1,5-a]pyrimidin-4(7H)-yl)acetamide]
1 to 100	CCc1c(N2CCN(C(=O)c3ncnc(C)c3O)CC2)c(=O)n2nc(C=C3CC(C(N)=O)C3)nc2n1CC(=O)Nc1ccc(C(F)(F)F)cc1Cl (stereo not drawn) [Example 116, 3-((4-(2-((2-chloro-4-(trifluoromethyl)phenyl)amino)-2-oxoethyl)-5-ethyl-6-(4-(5-hydroxy-6-methylpyrimidine-4-carbonyl)piperazin-1-yl)-7-oxo-4,7-dihydro-[1,2,4]triazolo[1,5-a]pyrimidin-2-yl)methylene)cyclobutane-1-carboxamide]
